In patent publication US10543183B2, “Treatment and diagnosis of melanoma” (The Rockefeller University, priority 2012, dated 2020):
Counter-ions that a name gives are not always drawn.

What was measured:
[1] = test system: DNAJA4 expression in MeWo cells; assay: DNAJA4 mRNA expression by qRT-PCR in melanoma cells; format: cell-based, human; conditions: parental MeWo cells, 48 hours
Method: Total RNA was extracted from various cell lines using the miRvana kit (AM1560, Applied Biosystems, Austin, Tex.). The expression levels of mature miRNAs were quantified using the Taqman miRNA expression assay (4427975-0002228, Applied Biosystems). RNU44 was used as an endogenous control for normalization. For mRNA expression analyses, 600 ng of total RNA was reverse transcribed using the cDNA First-Strand Synthesis Kit (18080-051, Invitrogen), and roughly 200 ng of the resulting cDNA was then mixed with SYBR green PCR Master Mix (4309155, Applied Biosystems) and the appropriate primers. Each reaction was performed in quadruplicate, and mRNA expression was quantified by performing real-time PCR amplification using an ABI Prism 7900HT Real-Time PCR System (Applied Biosystems). GAPDH was used as an endogenous control for normalization. The following primers were used: […]

[2] = test system: MeWo brain metastatic derivative cells; assay: brain metastasis assay, intracardiac injection; format: in vivo, mouse; conditions: oral, diet 100 mg/kg
Method: Melanoma cells used for in vivo metastasis assays were transduced with a stably expressed retroviral construct encoding a luciferase reporter gene (Ponomarev et al., 2004), allowing us to monitor the in vivo progression of melanoma cells by bioluminescence imaging. The following numbers of melanoma cells, resuspended in 100 μL of PBS, were injected intravenously via the tail-vein: 4×10^4 MeWo cells, 2.5×10^5 HT-144 cells, 2×10^5 SK-Mel-334.2 cells, 5×10^4B 16F10 cells, and 1×10^5YUMM cells. The MeWo, HT-144, and SK-Mel-334.2 cells were injected into 6-8 week-old sex-matched NOD scid mice, while the B16F10 and YUMM cells were injected into 6-8 week-old sex-matched C57BL/6 mice. In all experiments assessing at the effects of GW3965 on metastasis formation, mice were pre-treated on a control diet or a GW3965-supplemented diet (20 mg/kg) for 10 days. To assess the effect of GW3965 treatment on brain metastasis, 1×10^5 MeWo brain-metastatic derivatives were injected intracardially into athymic nude mice. Immediately following injection, mice were randomly assigned to a control diet or GW3965-supplemented diet (100 mg/kg). […]

[3] = test system: MeWo human melanoma tumors; assay: tumor histochemistry (MECA-32, Ki-67, cleaved caspase-3); format: in vivo, mouse
Text: Animals were intracardially perfused with PBS followed by 4% paraformaldehyde (PFA). Fixed lungs were embedded in paraffin and sectioned into 5-μm-thick increments. Macroscopic lung metastatic nodules were visualized by H&E staining. For analysis of tumor endothelial cell content, proliferation, and apoptosis, primary tumor paraffin-embedded sections were stained with antibodies against MECA-32 (Developmental Studies Hybridoma Bank, University of Iowa), KI-67 (ab15580, Abcam), and cleaved caspase-3 (9661, Cell Signaling), respectively.
Tumors were excised from mice and fixed in 4% paraformaldehyde at 4° C. for 48 hours. Then, tumors were paraffin-embedded and sectioned into 5-μm-thick increments. For endothelial cell content analysis in tumors, tumor sections were stained with a primary antibody against the mouse endothelial cell marker MECA-32 (Developmental Studies Hybridoma Bank, The University of Iowa, IA) and counterstained with DAPI nuclear stain. To determine tumor cell proliferation and apoptosis, tumor sections were stained with antibodies against the proliferative marker Ki-67 (Abcam, ab15580, Cambridge, Mass.) and the apoptotic marker cleaved caspase-3 (9661, Cell Signaling, Danvers, Mass.), respectively. Various Alexa Flour dye-conjugated secondary antibodies were used to detect primary antibodies. […] Endothelial cell content density and tumor proliferation rate were quantified by calculating the average percentage of MECA-32 or Ki-67 positively-staining area out of the total tumor area. Tumor apoptosis was measured by counting the number of cleaved caspase-3 expressing cells per given tumor area.

[4] = test system: VEGF-induced endothelial recruitment; assay: in vivo matrigel plug assay; parameters: species or system mouse; conditions: VEGF 400 ng/mL + 10 μg/mL
Method: 10 μg/mL recombinant human ApoE3 (4696, BioVision), 10 μg/mL BSA (A2153, Sigma Aldrich), or 400 ng/ml VEGF were mixed with matrigel (356231, BD Biosciences) as indicated. 400 μL of matrigel containing the indicated recombinant proteins were injected subcutaneously just above the ventral flank of immunocompromised NOD-SCID mice. Plugs were extracted on day 3 post-injection and fixed in 4% paraformaldehyde for 48 hours. Plugs were then paraffin-embedded and sectioned at 5-μm-thick increments. Plug cross-sectional sections were immunohistochemically stained using a primary antibody against the mouse endothelial antigen MECA-32 (Developmental Studies Hybridoma Bank, The University of Iowa, IA), detected by peroxidase-conjugated secondary antibody, and subsequently visualized by DAB oxidization. To quantify the extent of endothelial cell invasion into each matrigel plug, the number of endothelial cells was counted in 4-5 random fields for each plug, and the average number of endothelial cells per given plug area was calculated.

[5] = test system: endothelial cells (HUVEC); assay: endothelial migration and chemotaxis assays; format: cell-based, human; conditions: cancer cell-free system
Method: Serum-starved HUVEC's were pulsed with Cell Tracker Red CMTPX dye for 45 minutes and seeded into HTS Fluoroblock trans-well inserts at a concentration of 1×10^5 HUVEC's in 0.5 mL starvation media per each insert. The assay was allowed to proceed for 16-18 hours at 37° C., and the inserts were processed and analyzed as described above (See Matrigel Invasion Assay).
HUVEC's were serum-starved in 0.2% FBS EGM-2 media for 16 hours and labeled with Cell Tracker Red CMTPX dye for 45 minutes. Meanwhile, the indicated amounts (1-5 μg) of recombinant human ApoE3 or BSA were mixed with 250 μL of matrigel (356231, BD Biosciences) and allowed to solidify at the bottom of a 24-well plate for 30 min. 250 μL of HUVEC EGM-2 media containing 0.2% FBS was then added to each matrigel-coated well, and […] HTS Fluoroblock inserts were fitted into each well. 1×10^5 HUVEC's, resuspended in 0.5 mL of starvation media, were seeded into each insert and allowed to migrate along the matrigel gradient for 16-18 hours at 37° C. Upon completion of the assay, the inserts were mounted on slides and analyzed as described above (See Matrigel Invasion Assay).

[6] = test system: MeWo-LM2 cells or endothelial cells; assay: serum starvation assay; format: cell-based, human; conditions: 100 μM, 0.2% FBS
Method: The number of viable cells was counter after 8, 16, and 24 hours.

| Molecule | expression of DNAJA4 [1] | brain colonization [2] | systemic dissemination [2] | decrease in number of actively proliferating tumor cells in vivo ([3]; Ki-67) | number of apoptotic cells ([3]; cleaved caspase-3) | reduction in endothelial cell content of tumors ([3]; diet 20 mg/kg, 35 days, MECA-32) | suppression of VEGF-induced endothelial recruitment into subcutaneous matrigel plugs [4] | endothelial migration in trans-well and gradient-based chemotactic assay [5] | survival in serum starvation conditions [6] |
| --- | --- | --- | --- | --- | --- | --- | --- | --- | --- |
| O=C(O)Cc1cccc(OCCCN(Cc2cccc(C(F)(F)F)c2Cl)CC(c2ccccc2)c2ccccc2)c1 [GW3965 2, 3-[3-[N-(2-Chloro-3-trifluoromethylbenzyl)-(2,2-diphenylethyl)amino]propyloxy] phenylacetic acid hydrochloride] | increased expression | inhibited | inhibited | 23% | without a change | roughly 2 fold |  |  |  |
| recombinant ApoE3: recombinant human ApoE3 (4696, BioVision) |  |  |  |  |  |  | greater than 40 fold | sufficient to inhibit | did not affect |
